{"source": "patent US9066880B2", "about": "“Use of dihydrodehydrodiisoeugenol and preparations comprising dihydrodehydrodiisoeugenol” (SYMRISE AG, priority 2010, dated 2015)", "key": {"[1]": {"tested_on": "Preadipocyte factor 1 (Pref1)", "assay": "Real Time-PCR, expression of preadipocytes marker Pref-1 in 3T3-L1-cells", "assay_type": "cell-based, mouse", "settings": "relative to hormone mix stimulation (set equal to one)", "procedure": "(§1) 3T3-L1-cells (mouse embryonic fibroblast-like preadipocytes cell line) were propagated in Dulbecco's Modified Eagle Medium (DMEM), enriched with 10% newborn calf serum (CS) at 37° C. and 5% CO2 and seeded in 12-well plates for gene expression analysis. After reaching confluence at day −2, the differentiation was induced by changing medium at day 0 to DMEM with 10% fetal calf serum (FCS) containing a hormone mix (HM) of 1 μg/ml insulin, 0.25 μM dexamethasone (Dex) and 0.5 mM 3-isobutyl-1-methylxanthine (IBMX). Compounds of interest such as compound of formula (I) are applied from day −2 (confluence of the cells) until day 2 using various concentrations. Medium is renewed every other day. At day 2, medium consisting of DMEM, 10% FCS and 1 μg/ml insulin is added. From day 4 on, only DMEM containing 10% FCS is used for further cultivation of cells. […]\n(§2) Total RNA from cell culture samples was isolated using RNeasy Total RNA Kits (Qiagen, Hilden; Germany). The RNA concentration and purity was determined photometrically using 260/280 ratios (Biophotometer, Eppendorf, Hamburg, Germany). […] At least three independent experiments were performed with 2 determinations each and the mean value of these was calculated. […] Each sample was analyzed in duplicate employing the universal protocol over 46 cycles. […]"}, "[2]": {"tested_on": "peroxisome proliferator-activated receptor γ2 (PPARγ2)", "assay": "Real Time-PCR, expression of differentiation marker PPARγ2 in 3T3-L1-cells", "assay_type": "cell-based, mouse", "settings": "fold induction compared to hormone mix stimulation (set equal to one)", "procedure": "as §1, §2"}, "[3]": {"tested_on": "fatty acid binding protein 4 (FABP4)", "assay": "Real Time-PCR, expression of differentiation marker FABP4 in 3T3-L1-cells", "assay_type": "cell-based, mouse", "settings": "fold induction compared to hormone mix stimulation (set equal to one)", "procedure": "as §1, §2"}, "[4]": {"tested_on": "3T3-L1-cells (mouse embryonic fibroblast-like preadipocytes cell line)", "assay": "Quantification of intracellular lipids (stimulation of adipogenesis), Nile Red", "assay_type": "cell-based", "design": "Stimulation of adipogenesis: unit not given here", "settings": "for Stimulation of adipogenesis: applied day −2 to day 2, Nile Red at day 10, vs hormone mix only", "procedure": "3T3-L1-cells (mouse embryonic fibroblast-like preadipocytes cell line) were propagated in Dulbecco's Modified Eagle Medium (DMEM), enriched with 10% newborn calf serum (CS) at 37° C. and 5% CO2 and seeded in 48-well plates for lipid quantification. After reaching confluence at day −2 the differentiation was induced by changing medium at day 0 to DMEM with 10% fetal calf serum (FCS) containing a hormone mix (HM) of 1 μg/ml insulin, 0.25 μM dexamethasone (Dex) and 0.5 mM 3-isobutyl-1-methylxanthine (IBMX).\nCompounds of interest such as compound of formula (I) are applied from day −2 (confluence of the cells) until day 2 using various concentrations. Medium is renewed every other day. At day 2, medium consisting of DMEM, 10% FCS and 1 μg/ml insulin is added. From day 4 on, only DMEM containing 10% FCS is used for further cultivation of cells. At day 10, quantification of the intracellular lipid droplets is performed by addition of the fluorescent dye Nile Red (9-diethylamino-5H-benzo[alpha]phenoxazine-5-one) for 20 minutes at 37° C. and 5% CO2. Fluorescence (RFU) is detected with excitation at 485 nm and emission at 535 nm.\nStimulation of the adipogenesis in the presence of the compounds of interest is calculated according to the following equation:\n[formula] wherein • RFU test substance=Relative Fluorescence Units of the wells with test substance and with cells • RFU control=Relative Fluorescence Units of the wells stimulated with hormone mix only. • RFU without cells=Relative Fluorescence Units of the wells containing Nile Red only, without cells."}, "Cyclooxygenase-2 (COX-2)": {"molecular_target": "T1, Cyclooxygenase-2 (COX-2) (Homo sapiens, UniProt P35354)", "T1 sequence (P35354 18-604)": "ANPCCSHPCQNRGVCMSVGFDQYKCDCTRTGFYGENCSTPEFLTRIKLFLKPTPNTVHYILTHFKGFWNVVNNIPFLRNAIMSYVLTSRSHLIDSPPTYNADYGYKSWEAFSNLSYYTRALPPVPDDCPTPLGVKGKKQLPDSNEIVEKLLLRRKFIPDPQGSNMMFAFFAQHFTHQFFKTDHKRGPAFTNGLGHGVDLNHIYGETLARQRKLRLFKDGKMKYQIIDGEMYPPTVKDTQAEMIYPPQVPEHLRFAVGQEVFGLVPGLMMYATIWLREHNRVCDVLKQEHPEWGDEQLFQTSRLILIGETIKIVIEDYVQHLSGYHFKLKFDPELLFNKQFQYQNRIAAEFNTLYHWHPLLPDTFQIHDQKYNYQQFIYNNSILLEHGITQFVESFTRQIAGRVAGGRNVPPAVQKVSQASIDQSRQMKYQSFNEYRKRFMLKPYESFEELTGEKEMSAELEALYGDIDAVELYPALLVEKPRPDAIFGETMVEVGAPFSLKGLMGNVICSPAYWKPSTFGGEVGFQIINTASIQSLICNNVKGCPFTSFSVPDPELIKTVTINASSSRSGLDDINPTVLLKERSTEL", "assay": "COX-2-Assay (in vitro), fluorometric ADHP/resorufin", "assay_type": "biochemical", "settings": "average of at least 2 independent experiments", "source_text": "Cyclooxygenase-2 (COX-2) in the presence of test substance is mixed with the fluorometric substrate 10-acetyl-3,7-dihydroxyphenoxanin (ADHP) and Heme. The reaction is started by addition of the substrate arachidonic acid.\nCOX-2 converts the arachidonic acid into the prostaglandin endoperoxide G2 (PGG2). PGG2 is reduced to the corresponding alcohol PGH2. During this reaction ADHP results in fluorescent resorufin. Resorufin is quantified at an extinction wavelength of 535 nm and an emission wavelength of 590 nm.\n[formula] where • Resorufin test substance=Resorufin concentration of the wells with test substance and with COX-2 • Resorufin control=Resorufin concentration of the wells without test substance, but with COX-2 • Resorufin control without COX-2=Resoruf in concentration of the wells without test substance and without COX-2\nFrom the inhibition of the COX-2[%] in a series of dilutions of tested samples the IC50 is calculated. This is the concentration at which the activity of the COX-2 is inhibited by 50%."}, "adiponectin": {"tested_on": "adiponectin", "assay": "Real Time-PCR, expression of differentiation marker adiponectin in 3T3-L1-cells", "assay_type": "cell-based, mouse", "settings": "fold induction compared to hormone mix stimulation (set equal to one)", "procedure": "as §1, §2"}, "[5]": {"tested_on": "3T3-L1-cells (mouse embryonic fibroblast-like preadipocytes cell line)", "assay": "Lipolysis assay (in vitro), free glycerol in supernatant", "assay_type": "cell-based", "settings": "for Relative lipolysis compared to basal lipolysis: added at day 10 for 20 hours, basal lipolysis = 100%", "procedure": "3T3-L1-cells (mouse embryonic fibroblast-like preadipocytes cell line) were propagated in Dulbecco's Modified Eagle Medium (DMEM), enriched with 10% newborn calf serum (CS) at 37° C. and 5% CO2 and seeded in 48-well plates for lipolysis. After reaching confluence at day −2 the differentiation was induced by changing medium at day 0 to DMEM with 10% fetal calf serum (FCS) containing a hormone mix (HM) of 1 μg/ml insulin, 0.25 μM dexamethasone (Dex) and 0.5 mM 3-isobutyl-1-methylxanthine (IBMX). Medium is renewed every other day. At day 2, medium consisting of DMEM, 10% FCS and 1 μg/ml insulin is added. From day 4 on, only DMEM containing 10% FCS is used for further cultivation of cells. For determination of lipolysis, compounds of interest are added at day 10 for 20 hours mixed with bovine serum albumin (BSA). If lipolysis occurs, cells secrete glycerol into the supernatant. Therefore, supernatants are harvested and determination of lipolysis is performed by using a free glycerol reagent. The quantification of the free glycerol is carried out on the basis of an enzymatic method with a free glycerol reagent.\nThe lipolysis in the presence of the test substances is calculated according to the following equation:\n[formula] wherein • A test substance=absorption of the wells with test substance and with cells • A control=absorption of the wells without test substance, but with cells • A control without cells=absorption of the wells without test substance and without cells"}, "[6]": {"assay": "ABTS-Assay (in vitro), anti-oxidative capacity", "settings": "photometric at 734 nm, average of at least 2 independent experiments", "procedure": "With the help of the ABTS-assay the anti-oxidative capacity of test substances is measured. 2,2′-azino bis-(3-ethylbenzothiazoline 6-sulfonic acid) (ABTS) is transformed by potassium persulfate into the blue-green radical cation ABTS•+. Through the addition of antioxidants (test substance) the radical cations are reduced and discoloration takes place, which is determined photometrically at 734 nm.\n[formula] A test substance=absorption of the wells with test substance • A control=absorption of the wells without test substance\nFrom the inhibition of the radical formation [%] in a series of dilutions of tested samples the IC50 is calculated. This is the concentration at which the radical formation is inhibited by 50%."}, "[7]": {"tested_on": "CCAAT enhancer binding protein α (C/EBPα)", "assay": "Real Time-PCR, expression of differentiation marker C/EBPα in 3T3-L1-cells", "assay_type": "cell-based, mouse", "settings": "fold induction compared to hormone mix stimulation (set equal to one)", "procedure": "as §1, §2"}}, "data": [{"molecule": "CCCc1cc(OC)c2c(c1)C(C)C(c1ccc(O)c(OC)c1)O2", "note": "(centres unmarked) [compound of formula (I), 2-Methoxy-4-(7-methoxy-3-methyl-5-propyl-2,3-dihydro-benzofuran-2-yl)-phenol]", "values": [{"measurement": "Relative expression at day 2, Pref-1", "setting": "[1]; 1 μM", "result": 0.3}, {"measurement": "Relative expression at day 2, Pref-1", "setting": "[1]; 10 μM", "result": 0.7}, {"measurement": "Stimulation of expression at day 2, PPARγ2", "setting": "[2]; 1 μM", "result": 1.0}, {"measurement": "Stimulation of expression at day 2, PPARγ2", "setting": "[2]; 10 μM", "result": 1.5}, {"measurement": "Stimulation of expression at day 2, FABP4", "setting": "[3]; 1 μM", "result": 2.1}, {"measurement": "Stimulation of expression at day 2, FABP4", "setting": "[3]; 10 μM", "result": 3.3}, {"measurement": "Stimulation of adipogenesis", "setting": "[4]; 0.01 μM", "result": 18}, {"measurement": "Stimulation of adipogenesis", "setting": "[4]; 0.1 μM", "result": 30}, {"measurement": "Stimulation of adipogenesis", "setting": "[4]; 0.25 μM", "result": 35}, {"measurement": "Stimulation of adipogenesis", "setting": "[4]; 0.5 μM", "result": 38}, {"measurement": "Stimulation of adipogenesis", "setting": "[4]; 0.75 μM", "result": 48}, {"measurement": "Stimulation of adipogenesis", "setting": "[4]; 1 μM", "result": 49}, {"measurement": "Stimulation of adipogenesis", "setting": "[4]; 2.5 μM", "result": 48}, {"measurement": "Stimulation of adipogenesis", "setting": "[4]; 5 μM", "result": 37}, {"measurement": "Stimulation of adipogenesis", "setting": "[4]; 10 μM", "result": 22}, {"measurement": "IC50 calculated from the inhibition of COX-2", "setting": "Cyclooxygenase-2 (COX-2)", "result": 12.3, "unit": "ppm"}, {"measurement": "Stimulation of expression at day 2, Adiponectin", "setting": "adiponectin; 1 μM", "result": 1.4}, {"measurement": "Stimulation of expression at day 2, Adiponectin", "setting": "adiponectin; 10 μM", "result": 2.2}, {"measurement": "Relative lipolysis compared to basal lipolysis", "setting": "[5]; 1 μM", "result": "85% ± 1.6"}, {"measurement": "Relative lipolysis compared to basal lipolysis", "setting": "[5]; 10 μM", "result": "85% ± 1.5"}, {"measurement": "IC50 calculated from the inhibition of radical formation", "setting": "[6]", "result": 11.0, "unit": "ppm"}, {"measurement": "Stimulation of expression at day 2, C/EBPα", "setting": "[7]; 1 μM", "result": 1.1}, {"measurement": "Stimulation of expression at day 2, C/EBPα", "setting": "[7]; 10 μM", "result": 2.2}]}, {"molecule": "C[C@H]1CC[C@@]2(OC1)O[C@H]1C[C@H]3[C@@H]4CC[C@@H]5C[C@@H](O)CC[C@]5(C)[C@H]4CC[C@]3(C)[C@H]1[C@@H]2C", "note": "[sarsasapogenin, reference compound]", "values": [{"measurement": "Stimulation of adipogenesis", "setting": "[4]; 10 μM", "result": 27}, {"measurement": "Stimulation of adipogenesis", "setting": "[4]; 20 μM", "result": 17}, {"measurement": "Effect on adipogenesis (in words)", "setting": "[4]; experiments have shown", "result": "stimulating the adipogenesis"}, {"measurement": "Relative lipolysis compared to basal lipolysis", "setting": "[5]; 10 μM", "result": "99% ± 3.3"}, {"measurement": "Relative lipolysis compared to basal lipolysis", "setting": "[5]; 20 μM", "result": "106% ± 3.5"}, {"measurement": "Effect on lipolysis in differentiated adipocytes (in words)", "setting": "[5]; experiments have shown", "result": "no effect on the lipolysis"}]}]}
